Measurements taken from patent US6787125B1, “Compound screening method” (priority 1999, dated 2004).

How the values were obtained:
[1] = system: mutant C. elegans strain with a constitutively pumping pharynx; experiment: Pharynx pumping assay (calcein-AM fluorescence), screen for inhibitors; format: in vivo; conditions: compounds and worms incubated approximately 1 hour, then calcein-AM, one further hour
From the text: Depending on the specific assay which it is desired to perform, different C. elegans strains can be used. Screens to select for chemical substances inhibiting the pumping rate of the C. elegans pharynx are generally performed with mutant C. elegans strains which have a constitutively pumping pharynx. Wild-type worms can also be used in this screen, but the mutants worms are preferred. […] The selected mutant C. elegans with the constitutively pumping pharynx pumps medium into the gut at a constant rate and reduction/rescue of this phenotype can easily be scored, which facilitates the detection and selection of chemical substances.
(§1) The pumping rate of the pharynx is measured indirectly by adding a marker molecule precursor such as calcein-AM to the medium and measuring the formation of marker dye in the C. elegans gut. Calcein-AM is cleaved by esterases present in the C. elegans gut to release calcein, which is a fluorescent molecule. […] Therefore by measuring the accumulation of calcein in the nematode gut, detectable by fluorescence, it is possible to determine the pumping rate of the pharynx.
(§2) To perform the pharynx pumping screen with calcein-AM, a concentration of between 1 and 100 μM calcein-AM is added into the medium. Preferably 5 to 10 μM calcein-AM is used. Fluorescence is measured using a multi-well plate reader (Victor2, Wallac Oy, Finland) with following settings: Ex/Em=485/530.
160 well known drugs selected from the pharmacopoeia were used in a screen to test the performance of the pharynx pumping method. The drugs tested belong to a variety of categories, which included analgesics, antidiabetics, antiarrythmics, calcium channel blockers, diuretics, cholinesterase inhibitors, proton pump inhibitors and antidepressants.
The drugs were randomly distributed over the wells of two 96-well multi-well plates. The pumping rate of the C. elegans pharynx was measured using calcein-AM as described in Example 2.
In a first assay, the substrate calcein-AM was added to the medium at the same time as the worms and the compounds. The fluorescence was measured after approximately one hour.
In a variation of this protocol, compounds and worms are added to the medium first and incubated for approximately 1 hour. After this incubation period that allowed for the chemical substances to activate or to inhibit the pumping rate of the pharynx, calcein-AM was added. The plates where then further incubated for one hour prior to fluorescence measurement in the microtiter plate reader.

[2] = system: C. elegans pharynx; experiment: Pharynx pumping assay (calcein-AM), strain not specified: dilution series, insecticides, Tocris library; format: in vivo; conditions: for effect of compounds of known insecticidal activity on the pharynx pumping rate: FIGS. 18 to 21
Protocol: as §1, §2
To determine the sensitivity of the pharynx pumping assay, dilution series were made for some chemical substances. These include the chemicals clomipramine, tamoxifen, BP554, pimazide and thapsigargin. A concentration range was made from less than 1 μM up to 100 μM, and the pumping assay was repeated as described in previous examples.

[3] = system: wild-type worms; experiment: Movement assay (autofluorescence), wild-type worms; format: in vivo, C. elegans; conditions: for effect on movement of wild-type worms, compound alone: FIG. 8, 100% represents normal movement of wild-type worms
Protocol: Advanced multi-well plate readers are able to detect sub-regions of the wells of multi-well plates. By using these plate readers it is possible to take measurements in selected areas of the surface of the wells of the multi-well plates. If the area of measurement is centralized, so that only the middle of the well is measured, a difference in nematode autofluorescence (fluorescence which occurs in the absence of any external marker molecule) or optical density can be observed in the wells containing nematodes that move normally as compared to wells containing nematodes that are defective for movement. For the wells containing the nematodes that move normally, a low level of autofluorescence or optical density will be observed, whilst a high level of autofluorescence or optical density can be observed in the wells that contain the nematodes that are defective in movement. Optical density is measured using a variation of the platelet aggregation assay, which is well known in the art. Using the MRX revelation device from Dynex (USA), optical density can be measured at multiple points per well, showing the precipitation pattern of the nematodes.
This is because the mutant is mutated in the acetylcholine esterases, resulting in high concentrations of acetylcholine in the synapses. Neostigmine, a well known acetylcholine esterase inhibitor, was added to wild-type worms distributed over the wells of a multi-well plate and submitted to the movement assay after approximately 2 hours.
As receptor antagonist, hexamethonium will also result in a decrease of movement, as it prevents proper signalling.
In another experiment, wild-type worms were contacted with inhibitory concentrations of neostigmine to prevent movement. After a small incubation period, various concentrations of hexamethonium were added and the wells were submitted to the movement assay (measurement of autofluorescence). […] At very high concentrations of hexamethonium (although lower than the concentrations shown in last panel) a toxic effect is observed, resulting in a decrease in movement. This toxic effect is probably due to the presence of high concentrations of both neostigmine and hexamethonium.

[4] = system: ace-1; ace-2 double mutant; experiment: Movement assay, ace-1; ace-2 double mutant; format: in vivo, C. elegans; conditions: increasing concentrations of hexamethonium, absence of neostigmine; compared with the neostigmine experiment
Protocol: An analogous experiment was performed with the ace-1; ace-2 double mutant. In this experiment, increasing concentrations of hexamethonium were added to the wells in the absence of neostigmine.

[5] = system: C. elegans pharynx; conditions: Kerr et al.; cited from earlier work
[6] = concentration range from less than 1 μM up to 100 μM

CN1[C@@H]2CC[C@H]1C[C@@H](OC(=O)C(CO)c1ccccc1)C2 (stereo partly drawn) [Atropine]
activity on the pharynx pumping rate found with the variation of the protocol [1]: detection

CN1[C@@H]2CC[C@H]1C[C@@H](OC(=O)[C@H](CO)c1ccccc1)C2 [L-Hyoscyamine]
activity on the pharynx pumping rate found with the variation of the protocol [1]: detection

COP(=O)(OC)C(O)C(Cl)(Cl)Cl (stereo not drawn) [Metrifonate]
activity on the pharynx pumping rate found with the variation of the protocol [1]: detection

CC/C(=C(\c1ccccc1)c1ccc(OCCN(C)C)cc1)c1ccccc1 [Tamoxifen]
effect on pharynx pumping rate, dose-response curve [2, 6]: inhibitors

C/C=C(/C)C(=O)O[C@H]1C(C)=C2[C@H]([C@@H]1OC(=O)CCCCCCC)[C@@](C)(OC(C)=O)C[C@H](OC(=O)CCC)[C@@]1(O)[C@H]2OC(=O)[C@@]1(C)O [Thapsigargin]
effect on pharynx pumping rate, dose-response curve ([2]; at low concentration): enhancement of the pumping
effect on pharynx pumping rate, dose-response curve [2, 6]: decrease of the pumping rate
effect on pharynx pumping ([2]; general statement): decrease in the pharynx pumping rate
effect on movement ([3]; observation, method not stated): decreased movement

N=C(N)S/C=C\C(=O)O [ZAPA]
activity on the pharynx pumping rate found with the variation of the protocol [1]: detection

C[N+](C)(C)CCCCCC[N+](C)(C)C [hexamethonium, Hexamethonium]
movement of ace-1; ace-2 double mutant [4]: comparable
effect on movement of wild-type worms, compound alone [3]: represses the movement of wild-type worms, but significant less than neostigmine
movement of wild-type worms in presence of inhibitory concentrations of neostigmine ([3]; increasing concentrations of hexamethonium): more movement
toxic effect in movement assay ([3]; very high concentrations of hexamethonium together with neostigmine): toxic effect

CN(C)C(=O)Oc1cccc([N+](C)(C)C)c1 [neostigmine, Neostigmine]
effect on movement of wild-type worms, compound alone [3]: clear decrease in movement

NCCc1c[nH]c2ccc(O)cc12 [serotonin]
effect on pumping, seen as fluorescence of GFP-calmodulin [5]: enhancers of pumping

Ivermectin
effect of compounds of known insecticidal activity on the pharynx pumping rate [2]: reduction in the pharynx pumping rate
effect on pumping, seen as fluorescence of GFP-calmodulin [5]: inhibitors of pumping

Picrotoxin
effect of compounds of known insecticidal activity on the pharynx pumping rate [2]: reduction in the pharynx pumping rate
